Reference: US12552834B2, “Selective MENA binding peptides” (MASSACHUSETTS INSTITUTE OF TECHNOLOGY, priority 2021, dated 2026)
Entries after “also recorded” stand apart in the source; their conditions may differ. Where no end group is shown, it is not given here. disordered linker = not defined here

Experiments:
ENAH EVH1 domain [1] = target: T1, ENAH EVH1 domain (Homo sapiens, UniProt Q8N8S7); assay: Biolayer interferometry (BLI), SUMO-peptide fusions binding monomeric ENAH EVH1 domain WT
T1 construct: places a 6×-His and TEV cleavage tag N-terminal to the EVH1 domain; 6×-His + TEV cleavage site (N, cleaved yes); made in house; host or cells: E. coli Rosetta2(DE3)
Method: All BLI experiments were performed with 2 replicates on an Octet Red96 instrument (ForteBio). […] The loaded tips were immersed in a solution of ENAH EVH1 domain at a relevant dilution series in BLI buffer at an orbital shake speed of 1000 rpm and run until the binding signal plateaued. ENAH-bound tips were subsequently placed into BLI buffer only for dissociation and run until the binding signal plateaued. KD values were obtained through steady state analysis. […] The association phases were then fit to a one-phase binding model in Prism and the equilibrium steady-state binding signal values from that fit were plotted against ENAH concentration and fit to a single-site specific binding model in Prism to obtain dissociation constants. Errors reported are the standard deviation of two replicates.
Monomeric ENAH, EVL, or VASP EVH1 domains for use in BLI and ITC experiments, or ENAH EVH1-peptide fusions for crystallography was cloned into a pMCSG7 vector (gift from Frank Gertler, MIT), which places a 6×-His and TEV cleavage tag N-terminal to the EVH1 domain. These constructs were transformed into Rosetta2(DE3) cells and grown in 2×YT media supplemented with 100 μg/mL ampicillin. Cells were grown while shaking at 37° C. to an O.D. 600 of 0.5-0.7, and then cooled on ice for at least 20 minutes. They were then induced with 0.5 mM IPTG and grown while shaking at 18° C. overnight. Induced cultures were resuspended in 25 mL of wash buffer (20 mM Hepes pH 7.6, 500 mM NaCl, 20 mM imidazole) and frozen at −80° C. overnight. The next day, cultures were sonicated, spun down, and applied to Ni-NTA acid agarose resin equilibrated with wash buffer, and washed as described above. Samples were eluted in 10 mL elution buffer (20 mM Hepes pH 7.6, 500 mM NaCl, […]). TEV protease was added to the elution at a ratio of 1 mg TEV:50 mg tagged protein along with 1 mM DTT. This mixture was dialyzed against TEV cleavage buffer (50 mM Hepes pH 8.0, 300 mM NaCl, 5 mM DTT, 1 mM EDTA) at 4° C. overnight and then applied over Ni-NTA acid agarose resin equilibrated with wash buffer. The column was washed with 2×8 mL of wash buffer, and the resulting flow-through and washes were pooled, concentrated, and applied to an S75 26/60 column equilibrated in gel filtration buffer (20 mM Hepes pH 7.6, 150 mM NaCl, 1 mM DTT, 1% glycerol). Purity was verified by SDS-PAGE and combined fractions were concentrated and flash frozen at −80° C.
Rosetta2(DE3) cells (Novagen) were transformed with pDW363 vector encoding 6×-His-SUMO-peptide fusions and grown in 20 mL of LB+100 μg/mL Ampicillin+0.050 mM D-(+)-Biotin dissolved in DMSO for in vivo biotinylation. Cells were grown to an OD of 0.5-0.7 with 1 mM IPTG and induced for 4-6 hours at 37° C. Pellets were spun down and frozen and −80° C. for at least 2 hours. These pellets were then thawed and resuspended in B-PER reagent (ThermoFisher) at 4 mL/gram of pellet with 0.2 mM PMSF. This suspension was shaken at 25° C. for 10-15 minutes, and then spun down at 15,000 g for 10 minutes. The supernatant was applied to 250 μL of Ni-NTA acid agarose resin equilibrated in 20 mM Tris pH 8.0, 500 mM NaCl, 20 mM Imidazole (Buffer A), and then washed 3 times with 1 mL of this buffer. Peptides were eluted in 1.8 mL of 20 mM Tris pH 8.0, 500 mM NaCl, 300 mM imidazole to use in BLI assays.

[2] = system: MV^D7shEVL cells expressing GFP-ENAH, GFP-EVL or GFP-VASP; assay: Live-cell imaging of PCARE constructs co-expressed with GFP-tagged Ena/VASP paralogs; type: cell-based, mice
Excerpt: MV^D7 are embryonic fibroblasts derived from Enah^−/− Vasp^−/− mice, with low Evl expression (Auerbach 2003, Damiano-Guercio 2020). As Ena/VASP family members are known to heterotetramerize (Riquelme 2015), we used an shRNA against Evl to provide a clean background (average knockdown of MV^D7shEVL versus MV^D7 42.8+/−1.8% by qPCR, 3 biological replicates).
Together, these findings indicate that PCARE interacts specifically with ENAH and is capable of recruiting ENAH away from its normal functional sites. […]
Cells were imaged on a Ti-E inverted microscope (Nikon), with a 100× Apo TIRF 1.49 NA objective (Nikon) and an ORCA-Flash 4.0 V2 CMOS camera (Hamamatsu). For focal adhesion assessment, cells were imaged with total internal reflection fluorescence (TIRF) microscopy. To increase the depth of imaging for examination of mitochondrial localization, standard widefield fluorescence microscopy was used. Focal adhesion quantification was performed as previously described (Puleo 2019). […] Focal adhesion area was quantified by measuring the paxillin area of each cell within the whole cell area, or by examining individual focal adhesions. […]

ENAH EVH1 domain [3] = target: T1, ENAH EVH1 domain; assay: Isothermal titration calorimetry (ITC), SUMO-peptide titrated into ENAH EVH1 domain; type: binding; conditions: 25° C.
Method: ITC experiments were performed with two replicates using a VP-ITC microcalorimeter (MicroCal LLC). To prepare samples for ITC, 2.5 mL of 100 μM ENAH EVH1 domain and 1 mL of 800 μM-1.2 mM of SUMO-peptide fusions were dialyzed against 2 μL of ITC Buffer (20 mM Hepes pH 7.6, 150 mM NaCl, 1 mM TCEP) at 4° C. overnight. The concentrations of proteins were remeasured after dialysis on the day of experiment. SUMO-peptide was titrated into ENAH EVH1 domain at 25° C. Data analysis and curve fitting were performed with the Origin 7.0 software (OriginLab). Errors reported as the standard deviation of two replicates.
SUMO-peptide fusions were cloned into a pDW363 vector that appends a BAP and 6×-His tag to the N-terminus of the protein and transformed into Rosetta2(DE3) cells. For ITC experiments, these cells were expressed in TB supplemented with 100 μg/mL ampicillin, grown to an O.D. 600 of 0.5-0.7, and induced with 1 mM IPTG. Induced cultures were purified as described above for the pMCGS7 constructs, with the exception of the TEV cleavage step. Instead, after elution with elution buffer, the sample was directly applied to the S75 26/60 column equilibrated in gel filtration buffer. Fractions were pooled, concentrated, and flash frozen at −80° C.

T1 sequence (Q8N8S7 with tags, fused parts or gaps): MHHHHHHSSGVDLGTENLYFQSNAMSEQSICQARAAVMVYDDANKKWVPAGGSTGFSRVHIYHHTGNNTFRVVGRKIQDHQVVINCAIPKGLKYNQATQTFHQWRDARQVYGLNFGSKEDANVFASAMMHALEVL

Row | Compound | binding to monomeric ENAH EVH1 domain by BLI, in words (ENAH EVH1 domain [1]) | ITC binding model (ENAH EVH1 domain [3]) | ITC thermodynamic driving force of binding (ENAH EVH1 domain [3]) | further results
1 | GSTQDVQSSPHNQFTFRPLPPPPPPPHACTCARKPP [TENM1] | – | – | – | Kd (ENAH EVH1 domain [1]; BLI, ENAH EVH1 domain): > 60 µM
2 | mRuby2-PCARE: PCARE^822-848 tagged at the N-terminus with mRuby2 and a disordered linker, lentiviral expression ({mRuby2-disordered linker}-EMEGNLEHLPPPPMEVLMDKSFASLES; reading uncertain; UniProt A6NGG8 822-848, looked up, fragment) | – | – | – | localization of the PCARE construct ([2]; all conditions except co-expression with ENAH (GFP, ΔEVH1-ENAH, EVL, VASP)): diffuse cytoplasmic localization; localization of the PCARE construct ([2]; co-expressed with GFP-ENAH): moderately recruited to focal adhesions
3 | ILSGLPAPDFIDYPERQECNCRPQESPYVSGMKTCH [TRIM1, CXC-motif peptide from E3 ubiquitin ligase TRIM1] | did not saturate; also recorded: bound weakly and reversibly | – | – | –
4 | CC[C@H](C)[C@H](NC(=O)[C@H](CO)NC(=O)[C@@H]1CCCN1C(=O)[C@H](CC(C)C)NC(=O)[C@H](C)NC(=O)[C@H](CO)NC(=O)[C@H](CO)NC(=O)[C@H](CC(=O)O)NC(=O)[C@H](CC(=O)O)NC(=O)[C@H](CC(C)C)NC(=O)[C@@H]1CCCN1C(=O)[C@@H]1CCCN1C(=O)[C@@H]1CCCN1C(=O)[C@@H]1CCCN1C(=O)[C@@H]1CCCN1C(=O)[C@@H]1CCCN1C(=O)[C@H](CC(C)C)NC(=O)[C@H](Cc1ccccc1)NC(=O)[C@H](CC(=O)O)NC(=O)CNC(=O)[C@H](CCC(=O)O)NC(=O)CNC(=O)CNC(=O)[C@@H]1CCCN1C(=O)[C@H](CCC(N)=O)NC(=O)[C@@H](N)CCCCN)C(=O)N[C@@H](CO)C(=O)NCC(=O)N[C@@H](CC(N)=O)C(=O)N[C@@H](Cc1ccccc1)C(=O)N1CCC[C@H]1C(=O)N1CCC[C@H]1C(=O)N1CCC[C@H]1C(=O)N1CCC[C@H]1C(=O)N1CCC[C@H]1C(=O)N[C@@H](CC(C)C)C(=O)O [LPP] | – | fit well to a 1:1 binding model | enthalpically driven | reduction in affinity (ENAH EVH1 domain [1]; sequence between the two motifs replaced with a Gly-Ser linker): ~4 fold
5 | PPAPEEQDLSMADFPPPEEAFFSVASPEPAGPSGSP [KIAAA1522] | mid-micromolar affinity | – | – | –
6 | ADRSPFLPPPPPVTDCSQGSPLPHSPVFPPPPPEAL-OH [NHSL1] | – | fit well to a 1:1 binding model | enthalpically driven | –
